Laboratory results taken from patent US7345050B2, “Pyrimidine compounds” (AstraZeneca AB, priority 2001, dated 2008).

SMILES | melting point
OC(c1ccccc1)c1ccc(Nc2nccc(-c3cnc4ccccn34)n2)cc1 (racemic) [Example 8, (±)-2-[4-(Hydroxyphenylmethyl)anilino]-4-(imidazo-[1,2-a]-pyridin-3-yl)pyrimidine] | 213 to 216 °C
O=C(c1ccc(Nc2nccc(-c3cnc4ccccn34)n2)cc1)c1ccc(N2CCOCC2)cc1 [Example 1, 2-[4-(4-Morpholinobenzoyl)anilino]-4-(imidazo-[1,2-a]-pyridin-3-yl)pyrimidine] | > 237 °C (dec.)
Cc1ccc(C(=O)c2ccc(Nc3nccc(-c4cnc5ccccn45)n3)cc2)cc1 [Example 3, 2-[4-(4-Methylbenzoyl)anilino)-4-(imidazo-[1,2-a]-pyridin-3-yl)pyrimidine] | 238.9 to 239.2 °C
N#Cc1ccc(C(=O)c2ccc(Nc3nccc(-c4cnc5ccccn45)n3)cc2)cc1 [Example 4, 2-[4-(4-Cyanobenzoyl)anilino]-4-(imidazo-[1,2-a]-pyridin-3-yl)pyrimidine] | > 230 °C (dec.)
O=C(c1ccc(Nc2nccc(-c3cnc4ccccn34)n2)cc1)c1cccc(Cl)c1 [Example 5, 2-[4-(3-Chlorobenzoyl)anilino]-4-(imidazo-[1,2-a)-pyridin-3-yl)pyrimidine] | 194.7 to 196.7 °C
CCOc1cccc(C(=O)c2ccc(Nc3nccc(-c4cnc5ccccn45)n3)cc2)c1 [Example 6, 2-[4-(3-Ethoxybenzoyl)anilino]-4-(imidazo-[1,2-a]-pyridin-3-yl)pyrimidine] | 197.3 to 197.5 °C
O=C(c1ccccc1)c1ccc(Nc2nccc(-c3cnc4ccccn34)n2)cc1 [Example 7, 2-(4-Benzoylanilino)-4-(imidazo-[1,2-a]-pyridin-3-yl)pyrimidine] | 249 to 255 °C (dec.)
O=C(Cc1ccccc1)c1ccc(Nc2nccc(-c3cnc4ccccn34)n2)cc1 [Example 9, 2-[4-(1-Oxo-2-phenylethyl)anilino]-4-(imidazo-[1,2-a]-pyridin-3-yl)pyrimidine] | 225 to 228 °C (dec.)
O=C(c1ccccc1)c1cccc(Nc2nccc(-c3cnc4ccccn34)n2)c1 [Example 10, 2-(3-Benzoylanilino)-4-(imidazo-[1,2-a]-pyridin-3-yl)pyrimidine] | 237 to 246 °C (dec.)
O=C(c1ccc(Nc2nccc(-c3cnc4ccccn34)n2)cc1)c1ccc2cc[nH]c2c1 [Example 11, 2-[4-(1 H-Indol-6-ylcarbonyl)anilino]-4-(imidazo-[1,2-a]-pyridin-3-yl)pyrimidine] | 173 to 178 °C (dec.)
O=C(c1ccc(Nc2nccc(-c3cnc4ccccn34)n2)cc1)c1nccs1 [Example 13, 2-[4-(1,3-Thiazol-2-ylcarbonyl)anilino]-4-(imidazo-[1,2-a]-pyridin-3-yl)pyrimidine] | 234 to 235 °C (dec.)
